Series [1] is described as follows: Cytotoxicity against human 95-D cells after 72 hrs by MTT assay. In kind it is functional, cell-based.
The nature of series [2]: Anticancer activity against human 95-D cells xenografted in BALB/c mouse at 50 mg/kg, ig administered 2 to 3 times a week for 20 days measured post last dose relative to control. The format is functional. The conditions noted are these: route intragastric. (In general: Xenograft models place foreign cells or tissue in a host animal.)
For series [3], the system named is KB. The series can be described thus: Cytotoxicity against human KB cells after 72 hrs by MTT assay. In kind it is functional, cell-based.
The test system of series [4] is Mus musculus. The series can be described thus: Toxicity in BALB/c mouse xenografted with human 95-D cells assessed as body weight at 50 mg/kg, ig administered 2 to 3 times a week for 20 days measured post last dose (reference value: 21.6 +/- 0.6 gm). In kind it is organism-based. On the set-up: dose 50 mg/kg, route intragastric. Conditions: in vivo, po, 480 h.
Series [5] in a line: Cytotoxicity against human KB/VCR cells after 72 hrs by MTT assay. In kind it is functional, cell-based. A general note: Formazan colour is commonly taken as a measure of viable cells.
In series [6] the test system is A549. The series can be described thus: Cytotoxicity against human A549 cells after 72 hrs by MTT assay. In kind it is functional, cell-based. Conditions: A549, 72 h.
A short description of series [7]: Anticancer activity against human 95-D cells xenografted in BALB/c mouse assessed as inhibition of tumor growth at 50 mg/kg, ig administered 2 to 3 times a week for 20 days measured post last dose. In kind it is functional. Conditions: po, 480 h, route intragastric.

Broadly, the IC50 is the point on the concentration scale where inhibition reaches its midpoint. A high value points to weaker potency. One may read the inhibition in vivo as the share of the control response that was lost under treatment.

Consider `COc1cc([C@@H]2c3cc4c(cc3[C@@H](Nc3ccc(NC(=O)c5ccc(OC(C)=O)cc5)cc3)[C@H]3COC(=O)[C@H]23)OCO4)cc(OC)c1O`, for which the IC50 turned out to be 420 nM in series [1], 1910 nM in series [3], 8480 nM in series [5] and 2680 nM in series [6]. Further, the Activity in series [2] is 46.3%; in series [4], 16.8 g. Besides, the inhibition in vivo at 50 mg/kg in series [7] was 57.3%.

The values above are taken from ChEMBL document CHEMBL1649404, “Synthesis and biological evaluation of new 4β-anilino-4'-O-demethyl-4-desoxypodophyllotoxin derivatives as potential antitumor agents” (Eur J Med Chem, 2011).
